According to US20230085307A1, “PYRIDAZINONE COMPOUND AND HERBICIDE” (NISSAN CHEMICAL CORPORATION, priority 2019, published 2023):

How the values were obtained:
[1] = test system: windgrass; assay: Test Example 5: herbicidal effect by foliage application, plastic box (Table 20, symbol L); assay type: in vivo, windgrass (Apera spica-venti); details: foliage application, 320 g/ha, 3 weeks after application
In short: (§1)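 Plants sown in sterilized diluvial soil and grown 14 days in a greenhouse at 25° C to 30° C, then sprayed on the foliage with the compound's emulsion diluted in water to a predetermined herbicide amount. Injury to weeds and crops scored three weeks after application on a visual rating scale.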

[2] = test system: velvetleaf; assay: Test Example 4: herbicidal effect by soil treatment (Table 19, symbol M); assay type: in vivo, velvetleaf (Abutilon theophrasti); details: 320 g/ha
In short: (§2)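 Three weeks of greenhouse growth at 25° C. to 30° C. followed a uniform surface spray of water-diluted emulsion at a predetermined herbicide amount. Seeds had been sown beforehand under about 1.5 cm of sterilized diluvial soil. Grading followed criteria set out in an earlier test.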

[3] = test system: Japanese bulrush; assay: Test Example 1: herbicidal activity, application before weed generation under submerged conditions (Table 16, symbol B); assay type: in vivo, Japanese bulrush (Schoenoplectus juncoides); details: 320 g/ha applied herbicide
In short: (§3)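 Submerged Wagner pots (alluvial soil, 4 cm water) sown with weed seeds and planted with 2.5-leaf rice seedlings; emulsifiable concentrate diluted in water applied to water surface on sowing day. Held in greenhouse at 25-30 °C; injury scored 0-5 by herbicidal rate after three weeks.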

[4] = test system: Italian ryegrass; assay: Test Example 4: herbicidal effect by soil treatment (Table 19, symbol K); assay type: in vivo, Italian ryegrass (Lolium multiflorum); details: 320 g/ha
In short: as §2

[5] = test system: oval-leafed pondweed; assay: Test Example 2: herbicidal activity, application during weed generation under submerged conditions (Table 17, symbol C); assay type: in vivo, oval-leafed pondweed (Monochoria vaginalis); details: AAH 320 g/ha; application during weed generation, submerged conditions
In short: (§4)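 Steps: fill Wagner pots with alluvial soil; add water to give 4 cm depth; sow the species mixed; grow under glass at 25–30° C.; at 1–2 leaves apply water-diluted emulsion formulation to the water surface at a fixed herbicide amount; score after 3 weeks.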

[6] = test system: wild oat; assay: Test Example 4: herbicidal effect by soil treatment (Table 19, symbol I); assay type: in vivo, wild oat (Avena fatua); details: 320 g/ha
In short: as §2

[7] = test system: rice flat sedge; assay: Test Example 3: herbicidal effect by foliage application, Wagner pot (Table 18, symbol E); assay type: in vivo, rice flat sedge (Cyperus iria); details: 320 g/ha
In short: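 Plants were sown in alluvial soil held under 0.1–0.5 cm standing water and grown 14 days in a greenhouse at 25–30 °C. An emulsifiable formulation, water-diluted to the set dose, was then sprayed onto the foliage, and effects were scored three weeks later using previously defined criteria.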

[8] = test system: Japanese bulrush; assay: Test Example 2: herbicidal activity, application during weed generation under submerged conditions (Table 17, symbol B); assay type: in vivo, Japanese bulrush (Schoenoplectus juncoides); details: AAH 320 g/ha; application during weed generation, submerged conditions
In short: as §4

[9] = test system: green foxtail; assay: Test Example 5: herbicidal effect by foliage application, plastic box (Table 20, symbol G); assay type: in vivo, green foxtail (Setaria viridis); details: foliage application, 320 g/ha, 3 weeks after application
In short: as §1

[10] = test system: persian speedwell; assay: Test Example 4: herbicidal effect by soil treatment (Table 19, symbol R); assay type: in vivo, Persian speedwell (Veronica persica); details: 320 g/ha
In short: as §2

[11] = test system: southern crabgrass; assay: Test Example 5: herbicidal effect by foliage application, plastic box (Table 20, symbol F); assay type: in vivo, southern crabgrass (Digitaria ciliaris); details: foliage application, 320 g/ha, 3 weeks after application
In short: as §1

[12] = test system: oval-leafed pondweed; assay: Test Example 1: herbicidal activity, application before weed generation under submerged conditions (Table 16, symbol C); assay type: in vivo, oval-leafed pondweed (Monochoria vaginalis); details: 320 g/ha applied herbicide
In short: as §3

[13] = test system: lambsquarters; assay: Test Example 5: herbicidal effect by foliage application, plastic box (Table 20, symbol O); assay type: in vivo, lambsquarters (Chenopodium album); details: foliage application, 320 g/ha, 3 weeks after application
In short: as §1

[14] = test system: green foxtail; assay: Test Example 4: herbicidal effect by soil treatment (Table 19, symbol G); assay type: in vivo, green foxtail (Setaria viridis); details: 320 g/ha
In short: as §2

[15] = test system: windgrass; assay: Test Example 4: herbicidal effect by soil treatment (Table 19, symbol L); assay type: in vivo, windgrass (Apera spica-venti); details: 320 g/ha
In short: as §2

Compound | effect on windgrass (L) [1] | herbicidal effect rating, M: velvetleaf [2] | Herbicidal effect on B: Japanese bulrush (grade 0-5) [3] | herbicidal effect rating, K: Italian ryegrass [4] | herbicidal effect rating, C: oval-leafed pondweed [5] | herbicidal effect rating, I: wild oat [6] | herbicidal effect on E (rice flat sedge), rating 0-5 [7] | herbicidal effect rating, B: Japanese bulrush [8] | effect on green foxtail (G) [9] | herbicidal effect rating, R: persian speedwell [10] | effect on southern crabgrass (F) [11] | Herbicidal effect on C: oval-leafed pondweed (grade 0-5) [12] | effect on lambsquarters (O) [13] | herbicidal effect rating, G: green foxtail [14] | herbicidal effect rating, L: windgrass [15]
Cc1ccc(-c2sc3ccc(F)cc3c2-c2c(O)c(C)nn(C)c2=O)cc1 [2-012] | 4 (Herbicidal rate of 70% or more and less than 90%) | 4 (Herbicidal rate of 70% or more and less than 90%) | 0 (Herbicidal rate of 5% or less (almost no effect)) | 4 (Herbicidal rate of 70% or more and less than 90%) | 0 (Herbicidal rate of 5% or less (almost no effect)) | 0 (Herbicidal rate of 5% or less (almost no effect)) | 5 (Herbicidal rate of 90% or more (almost completely withered)) | 3 (Herbicidal rate of 40% or more and less than 70%) | 5 (Herbicidal rate of 90% or more (almost completely withered)) | 5 (Herbicidal rate of 90% or more (almost completely withered)) | 5 (Herbicidal rate of 90% or more (almost completely withered)) | 0 (Herbicidal rate of 5% or less (almost no effect)) | 4 (Herbicidal rate of 70% or more and less than 90%) | 5 (Herbicidal rate of 90% or more (almost completely withered)) | 0 (Herbicidal rate of 5% or less (almost no effect))
CCCC(=O)Oc1c(C)nn(C)c(=O)c1-c1c(-c2ccc(C)cc2)sc2ccc(F)cc12 [2-013] | 3 (Herbicidal rate of 40% or more and less than 70%) | 3 (Herbicidal rate of 40% or more and less than 70%) | 2 (Herbicidal rate of 20% or more and less than 40%) | 4 (Herbicidal rate of 70% or more and less than 90%) | 3 (Herbicidal rate of 40% or more and less than 70%) | 0 (Herbicidal rate of 5% or less (almost no effect)) | 5 (Herbicidal rate of 90% or more (almost completely withered)) | 2 (Herbicidal rate of 20% or more and less than 40%) | 5 (Herbicidal rate of 90% or more (almost completely withered)) | 4 (Herbicidal rate of 70% or more and less than 90%) | 5 (Herbicidal rate of 90% or more (almost completely withered)) | 2 (Herbicidal rate of 20% or more and less than 40%) | 4 (Herbicidal rate of 70% or more and less than 90%) | 5 (Herbicidal rate of 90% or more (almost completely withered)) | 0 (Herbicidal rate of 5% or less (almost no effect))
COc1ccc(-c2sc3ccc(F)cc3c2-c2c(O)c(C)nn(C)c2=O)cc1 [2-026] | 4 (Herbicidal rate of 70% or more and less than 90%) | 5 (Herbicidal rate of 90% or more (almost completely withered)) | 4 (Herbicidal rate of 70% or more and less than 90%) | 3 (Herbicidal rate of 40% or more and less than 70%) | 5 (Herbicidal rate of 90% or more (almost completely withered)) | 3 (Herbicidal rate of 40% or more and less than 70%) | 5 (Herbicidal rate of 90% or more (almost completely withered)) | 4 (Herbicidal rate of 70% or more and less than 90%) | 4 (Herbicidal rate of 70% or more and less than 90%) | 5 (Herbicidal rate of 90% or more (almost completely withered)) | 5 (Herbicidal rate of 90% or more (almost completely withered)) | 4 (Herbicidal rate of 70% or more and less than 90%) | 4 (Herbicidal rate of 70% or more and less than 90%) | 3 (Herbicidal rate of 40% or more and less than 70%) | 1 (Herbicidal rate of 5% or more and less than 20%)
